Assay results reported in ChEMBL document CHEMBL4507264, “Data for DCP probe BAY-7598” (2021).
Calls of active or inactive are those of the source. The rule behind the calls is not given here.

Key:
[1] = molecular target: Calcium/calmodulin-dependent protein kinase type 1G (Homo sapiens) (UniProt Q96NX5); conditions: Compound concentration 1000.0 nM
[2] = molecular target: Muscarinic acetylcholine receptor M3 (Homo sapiens) (UniProt P20309); conditions: Compound concentration 10.0 uM
[3] = molecular target: Adenosine receptor A1 (Homo sapiens) (UniProt P30542); conditions: Compound concentration 10.0 uM
Mus musculus = species on record: Mus musculus; assay: Inhibition of Interleukin IL-1 at 10 µM in the Eurofins-Panlabs radioligand binding assay (Eurofins_assay_243520); parameters: ligand concentration 0.1 nM; conditions: Compound concentration 10.0 uM
[4] = molecular target: Melatonin receptor type 1A (Homo sapiens) (UniProt P48039); assay: Inhibition of Melatonin MT1 at 10 µM in the Eurofins-Panlabs radioligand binding assay (Eurofins_assay_251600); parameters: ligand concentration 0.05 nM; conditions: Compound concentration 10.0 uM
[5] = molecular target: Neuropeptide Y receptor type 1 (Homo sapiens) (UniProt P25929); assay: Inhibition of Neuropeptide Y Y1 at 10 µM in the Eurofins-Panlabs radioligand binding assay (Eurofins_assay_257010); conditions: Compound concentration 10.0 uM
[6] = molecular target: Prostaglandin E2 receptor EP4 subtype (Homo sapiens) (UniProt P35408); assay: Inhibition of Prostanoid EP4 at 10 µM in the Eurofins-Panlabs radioligand binding assay (Eurofins_assay_268420); parameters: ligand concentration 1 nM; conditions: Compound concentration 10.0 uM
[7] = molecular target: Glutamate receptor ionotropic, kainate (Rattus norvegicus) (UniProt P22756+Q01812+P42260+P42264+Q63273); assay: Inhibition of Glutamate, Kainate at 10 µM in the Eurofins-Panlabs radioligand binding assay (Eurofins_assay_232700); conditions: Compound concentration 10.0 uM
[8] = molecular target: L-type calcium channel, benzothiazepine site (Cav1.2 alpha-1C) (Homo sapiens, UniProt Q13936); assay: Inhibition of Calcium Channel L-Type, Benzothiazepine at 10 µM in the Eurofins-Panlabs radioligand binding assay (Eurofins_assay_214510); parameters: ligand concentration 2 nM, non-specific ligand with concentration 10 µM Diltiazem, incubation time 3h, incubation temperature 4 °C; conditions: male, Wistar, rat, rat whole brain preparation, probe [3H] Diltiazem; compound concentration 10 uM; target entry is the homologue from another species
[9] = molecular target: Neuropeptide Y receptor type 2 (Homo sapiens) (UniProt P49146); assay: Inhibition of Neuropeptide Y Y2 at 10 µM in the Eurofins-Panlabs radioligand binding assay (Eurofins_assay_257110); conditions: Compound concentration 10.0 uM
[10] = molecular target: T1, GABA-A receptor; anion channel (Rattus norvegicus) (UniProt O09028+P15431+P18506+P18508+P19969+P20236+P23574+P23576+P28471+P28473+P30191+P62813+P63079+P63138+Q91ZM7+Q9ES14); conditions: Compound concentration 10.0 uM
[11] = molecular target: Macrophage metalloelastase (Homo sapiens, UniProt P39900); assay: Biophysical assay (SPR biosensor-based assay)
[12] = molecular target: Voltage-dependent N-type calcium channel subunit alpha-1B (Homo sapiens) (UniProt Q00975); assay: Inhibition of Calcium Channel N-Type at 10 µM in the Eurofins-Panlabs radioligand binding assay (Eurofins_assay_216000); conditions: Rattus norvegicus; Compound concentration 10.0 uM
[13] = molecular target: 5-hydroxytryptamine receptor 2B (Homo sapiens) (UniProt P41595); conditions: Compound concentration 10.0 uM
hERG (KCNH2) = hERG (KCNH2) (Homo sapiens, UniProt Q12809); assay: Inhibition of Potassium Channel hERG at 10 µM in the Eurofins-Panlabs radioligand binding assay (Eurofins_assay_265900); parameters: ligand concentration 1.5 nM, non-specific ligand with concentration Astemizole, incubation time 60 min, incubation temperature 25 °C; conditions: HEK-293 cells expressing human recombinant hERG, probe [3H] Astemizole, compound concentration 10 uM
[14] = molecular target: Alpha-1A adrenergic receptor (Homo sapiens) (UniProt P35348); conditions: Rattus norvegicus; Compound concentration 10.0 uM
[15] = molecular target: TGF-beta receptor type-2 (Homo sapiens) (UniProt P37173); conditions: Compound concentration 1000.0 nM
[16] = molecular target: T2, Alpha-1D adrenergic receptor (Homo sapiens) (UniProt P25100); assay: Inhibition of Adrenergic alpha1D at 10 µM in the Eurofins-Panlabs radioligand binding assay (Eurofins_assay_203400); conditions: Compound concentration 10.0 uM
T2 sequence (whole entry): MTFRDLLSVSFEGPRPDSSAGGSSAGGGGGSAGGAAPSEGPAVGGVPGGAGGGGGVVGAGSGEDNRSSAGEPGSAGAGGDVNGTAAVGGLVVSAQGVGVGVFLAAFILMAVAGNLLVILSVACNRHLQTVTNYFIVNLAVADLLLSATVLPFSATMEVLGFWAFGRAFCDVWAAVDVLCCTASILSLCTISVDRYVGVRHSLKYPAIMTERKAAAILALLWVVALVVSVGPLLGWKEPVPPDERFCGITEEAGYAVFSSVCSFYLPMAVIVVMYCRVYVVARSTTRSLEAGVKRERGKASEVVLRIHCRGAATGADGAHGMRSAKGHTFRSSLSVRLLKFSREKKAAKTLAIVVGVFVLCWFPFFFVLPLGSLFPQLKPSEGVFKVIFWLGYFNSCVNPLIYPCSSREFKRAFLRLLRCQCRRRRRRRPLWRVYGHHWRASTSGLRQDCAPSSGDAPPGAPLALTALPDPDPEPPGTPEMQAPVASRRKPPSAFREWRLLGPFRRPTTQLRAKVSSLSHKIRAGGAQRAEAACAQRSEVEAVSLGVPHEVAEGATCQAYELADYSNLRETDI

Homo sapiens = species on record: Homo sapiens; assay: Inhibition of Nicotinic Acetylcholine at compound concentration of 10.0 uM in the Eurofins-Panlabs radioligand binding assay (Eurofins_assay_258590); type: protein-complex assay; conditions: Compound concentration 10.0 uM
[17] = molecular target: Cannabinoid receptor 1 (Homo sapiens) (UniProt P21554); conditions: Compound concentration 10.0 uM
[18] = molecular target: D(2) dopamine receptor (Homo sapiens) (UniProt P14416); conditions: Compound concentration 10.0 uM
[19] = molecular target: Kappa-type opioid receptor (Homo sapiens) (UniProt P41145); conditions: Compound concentration 10.0 uM
[20] = molecular target: Gamma-aminobutyric acid type B receptor subunit 1 (Homo sapiens) (UniProt Q9UBS5); assay: Inhibition of GABAB1A at compound concentration of 10.0 uM in the Eurofins-Panlabs radioligand binding assay (Eurofins_assay_228610); parameters: ligand concentration 4 nM; conditions: Compound concentration 10.0 uM
[21] = molecular target: Epidermal growth factor receptor (Homo sapiens) (UniProt P00533); assay: Inhibition of Epidermal Growth Factor (EGF) at 10 µM in the Eurofins-Panlabs radioligand binding assay (Eurofins_assay_225510); conditions: Compound concentration 10.0 uM
[22] = molecular target: 5-hydroxytryptamine receptor 3A (Homo sapiens) (UniProt P46098); conditions: Compound concentration 10.0 uM
[23] = molecular target: T1, GABA-A receptor; anion channel (Rattus norvegicus); assay: Inhibition of GABAA, Muscimol, Central at 10 µM in the Eurofins-Panlabs radioligand binding assay (Eurofins_assay_226500); type: protein-complex assay; conditions: Compound concentration 10.0 uM
[24] = molecular target: Histamine H3 receptor (Homo sapiens) (UniProt Q9Y5N1); conditions: Compound concentration 10.0 uM

Calcium/calmodulin-dependent protein kinase type 1G (Homo sapiens), sequence (Q96NX5 whole entry): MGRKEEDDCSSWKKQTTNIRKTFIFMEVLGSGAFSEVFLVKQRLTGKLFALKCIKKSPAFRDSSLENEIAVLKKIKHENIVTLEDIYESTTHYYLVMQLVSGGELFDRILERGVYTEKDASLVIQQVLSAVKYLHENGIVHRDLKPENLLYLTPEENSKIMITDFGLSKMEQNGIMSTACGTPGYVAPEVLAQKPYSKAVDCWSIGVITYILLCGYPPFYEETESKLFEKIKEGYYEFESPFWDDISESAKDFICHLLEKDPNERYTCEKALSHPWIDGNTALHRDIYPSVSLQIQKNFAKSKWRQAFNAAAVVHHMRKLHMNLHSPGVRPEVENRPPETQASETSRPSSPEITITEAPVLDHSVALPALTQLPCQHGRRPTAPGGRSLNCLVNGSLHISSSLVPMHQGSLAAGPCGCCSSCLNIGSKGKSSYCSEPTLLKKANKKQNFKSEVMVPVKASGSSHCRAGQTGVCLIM
TGF-beta receptor type-2 (Homo sapiens), sequence (P37173 whole entry): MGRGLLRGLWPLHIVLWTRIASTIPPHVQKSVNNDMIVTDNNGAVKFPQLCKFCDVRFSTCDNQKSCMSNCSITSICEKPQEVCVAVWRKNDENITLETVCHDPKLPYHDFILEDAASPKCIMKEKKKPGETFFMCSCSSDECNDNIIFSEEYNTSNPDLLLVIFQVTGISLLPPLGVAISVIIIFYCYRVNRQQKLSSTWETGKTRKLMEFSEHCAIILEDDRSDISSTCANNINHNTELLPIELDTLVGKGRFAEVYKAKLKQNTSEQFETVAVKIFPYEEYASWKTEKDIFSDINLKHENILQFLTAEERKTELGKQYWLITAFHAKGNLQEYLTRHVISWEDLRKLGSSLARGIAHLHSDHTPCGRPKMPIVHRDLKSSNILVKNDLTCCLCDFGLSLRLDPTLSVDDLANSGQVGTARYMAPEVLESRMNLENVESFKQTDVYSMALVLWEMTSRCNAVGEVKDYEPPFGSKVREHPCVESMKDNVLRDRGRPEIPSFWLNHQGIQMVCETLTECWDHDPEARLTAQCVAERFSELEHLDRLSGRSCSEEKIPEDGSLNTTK
Epidermal growth factor receptor (Homo sapiens), sequence (P00533 whole entry): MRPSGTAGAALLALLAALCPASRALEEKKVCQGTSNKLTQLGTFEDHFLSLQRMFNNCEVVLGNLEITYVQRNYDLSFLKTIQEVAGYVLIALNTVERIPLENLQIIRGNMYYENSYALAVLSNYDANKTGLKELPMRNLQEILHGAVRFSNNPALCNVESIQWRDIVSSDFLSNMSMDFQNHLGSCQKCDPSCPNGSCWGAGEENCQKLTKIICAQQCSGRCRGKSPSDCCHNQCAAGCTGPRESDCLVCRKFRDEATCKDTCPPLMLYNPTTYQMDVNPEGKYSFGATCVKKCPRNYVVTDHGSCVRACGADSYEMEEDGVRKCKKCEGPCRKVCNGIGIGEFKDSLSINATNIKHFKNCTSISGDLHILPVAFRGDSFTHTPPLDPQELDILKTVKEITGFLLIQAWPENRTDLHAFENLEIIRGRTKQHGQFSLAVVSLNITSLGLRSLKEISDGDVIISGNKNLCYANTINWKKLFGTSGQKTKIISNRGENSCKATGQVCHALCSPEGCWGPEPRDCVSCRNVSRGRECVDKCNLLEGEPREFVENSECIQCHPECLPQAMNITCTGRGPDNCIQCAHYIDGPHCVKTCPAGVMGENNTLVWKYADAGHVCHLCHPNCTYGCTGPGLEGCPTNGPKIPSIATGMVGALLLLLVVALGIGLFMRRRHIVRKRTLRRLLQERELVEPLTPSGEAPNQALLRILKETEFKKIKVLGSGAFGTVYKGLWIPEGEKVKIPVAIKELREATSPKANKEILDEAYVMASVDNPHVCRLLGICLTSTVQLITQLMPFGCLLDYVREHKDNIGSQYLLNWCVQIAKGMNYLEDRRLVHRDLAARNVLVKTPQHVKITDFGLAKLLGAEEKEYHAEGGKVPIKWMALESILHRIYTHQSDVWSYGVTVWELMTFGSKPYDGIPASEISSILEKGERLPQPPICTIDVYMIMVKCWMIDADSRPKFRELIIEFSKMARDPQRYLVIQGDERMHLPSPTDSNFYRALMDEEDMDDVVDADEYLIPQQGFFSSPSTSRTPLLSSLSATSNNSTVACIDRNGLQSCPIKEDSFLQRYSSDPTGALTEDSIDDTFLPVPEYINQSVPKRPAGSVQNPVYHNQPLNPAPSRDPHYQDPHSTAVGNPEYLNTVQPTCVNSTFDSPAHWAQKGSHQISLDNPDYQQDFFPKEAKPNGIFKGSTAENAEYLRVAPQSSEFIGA
Prostaglandin E2 receptor EP4 subtype (Homo sapiens), sequence (P35408 whole entry): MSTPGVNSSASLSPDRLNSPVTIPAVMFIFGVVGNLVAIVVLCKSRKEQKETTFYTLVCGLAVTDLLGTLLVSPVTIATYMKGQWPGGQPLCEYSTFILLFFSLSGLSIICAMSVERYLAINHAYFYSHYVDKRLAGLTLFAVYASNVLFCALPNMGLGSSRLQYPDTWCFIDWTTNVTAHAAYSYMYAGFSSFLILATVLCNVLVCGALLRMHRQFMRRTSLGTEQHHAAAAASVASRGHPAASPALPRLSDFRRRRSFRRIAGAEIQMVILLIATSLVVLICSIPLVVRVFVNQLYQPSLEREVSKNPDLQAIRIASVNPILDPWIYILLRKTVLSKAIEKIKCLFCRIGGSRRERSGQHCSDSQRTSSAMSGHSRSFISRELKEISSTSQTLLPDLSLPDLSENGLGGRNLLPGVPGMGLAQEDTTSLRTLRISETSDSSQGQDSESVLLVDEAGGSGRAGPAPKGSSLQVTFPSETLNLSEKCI
5-hydroxytryptamine receptor 2B (Homo sapiens), sequence (P41595 whole entry): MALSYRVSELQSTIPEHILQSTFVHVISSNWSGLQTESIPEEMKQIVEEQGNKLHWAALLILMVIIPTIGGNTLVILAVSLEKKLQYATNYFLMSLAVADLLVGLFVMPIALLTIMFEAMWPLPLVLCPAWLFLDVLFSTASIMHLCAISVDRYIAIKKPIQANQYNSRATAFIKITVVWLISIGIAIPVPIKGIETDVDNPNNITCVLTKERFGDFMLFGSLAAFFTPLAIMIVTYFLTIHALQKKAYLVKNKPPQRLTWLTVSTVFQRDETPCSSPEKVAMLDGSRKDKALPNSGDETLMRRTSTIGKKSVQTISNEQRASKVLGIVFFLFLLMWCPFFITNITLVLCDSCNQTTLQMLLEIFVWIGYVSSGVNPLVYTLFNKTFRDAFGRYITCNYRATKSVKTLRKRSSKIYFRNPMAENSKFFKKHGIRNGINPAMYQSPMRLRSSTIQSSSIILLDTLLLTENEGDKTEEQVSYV
Gamma-aminobutyric acid type B receptor subunit 1 (Homo sapiens), sequence (Q9UBS5 whole entry): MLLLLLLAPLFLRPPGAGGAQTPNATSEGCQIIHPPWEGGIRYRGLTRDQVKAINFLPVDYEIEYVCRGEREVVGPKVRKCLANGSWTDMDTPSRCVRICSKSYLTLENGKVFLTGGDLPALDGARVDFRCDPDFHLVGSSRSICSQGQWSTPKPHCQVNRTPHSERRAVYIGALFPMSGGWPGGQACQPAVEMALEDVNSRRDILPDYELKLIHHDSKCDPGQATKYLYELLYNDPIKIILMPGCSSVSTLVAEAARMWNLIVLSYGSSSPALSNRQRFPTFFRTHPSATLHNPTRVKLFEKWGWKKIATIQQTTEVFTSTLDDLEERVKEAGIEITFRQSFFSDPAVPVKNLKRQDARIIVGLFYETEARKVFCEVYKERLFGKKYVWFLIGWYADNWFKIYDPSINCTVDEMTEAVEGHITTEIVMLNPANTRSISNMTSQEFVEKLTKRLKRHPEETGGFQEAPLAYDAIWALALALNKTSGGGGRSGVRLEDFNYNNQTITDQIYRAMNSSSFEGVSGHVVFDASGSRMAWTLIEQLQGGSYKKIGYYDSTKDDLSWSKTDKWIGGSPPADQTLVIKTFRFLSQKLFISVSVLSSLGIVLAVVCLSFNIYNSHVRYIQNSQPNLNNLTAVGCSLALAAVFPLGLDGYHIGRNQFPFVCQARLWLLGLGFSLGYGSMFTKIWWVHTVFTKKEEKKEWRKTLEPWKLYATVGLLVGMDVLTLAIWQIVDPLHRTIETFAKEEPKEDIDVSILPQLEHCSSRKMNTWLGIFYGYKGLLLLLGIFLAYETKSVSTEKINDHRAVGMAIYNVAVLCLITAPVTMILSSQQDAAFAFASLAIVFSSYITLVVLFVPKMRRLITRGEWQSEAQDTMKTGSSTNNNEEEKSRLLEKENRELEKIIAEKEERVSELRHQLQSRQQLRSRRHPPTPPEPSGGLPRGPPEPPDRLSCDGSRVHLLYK
Neuropeptide Y receptor type 1 (Homo sapiens), sequence (P25929 whole entry): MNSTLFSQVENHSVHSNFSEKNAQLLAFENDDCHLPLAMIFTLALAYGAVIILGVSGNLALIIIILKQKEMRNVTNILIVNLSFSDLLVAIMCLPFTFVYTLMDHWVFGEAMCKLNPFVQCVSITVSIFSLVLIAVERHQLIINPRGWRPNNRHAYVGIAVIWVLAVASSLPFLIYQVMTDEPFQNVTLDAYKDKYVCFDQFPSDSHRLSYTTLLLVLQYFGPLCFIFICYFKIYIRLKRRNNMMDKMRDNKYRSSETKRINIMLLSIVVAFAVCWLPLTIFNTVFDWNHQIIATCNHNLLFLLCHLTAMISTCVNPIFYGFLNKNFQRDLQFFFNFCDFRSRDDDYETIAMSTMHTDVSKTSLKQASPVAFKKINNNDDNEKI
Alpha-1A adrenergic receptor (Homo sapiens), sequence (P35348 whole entry): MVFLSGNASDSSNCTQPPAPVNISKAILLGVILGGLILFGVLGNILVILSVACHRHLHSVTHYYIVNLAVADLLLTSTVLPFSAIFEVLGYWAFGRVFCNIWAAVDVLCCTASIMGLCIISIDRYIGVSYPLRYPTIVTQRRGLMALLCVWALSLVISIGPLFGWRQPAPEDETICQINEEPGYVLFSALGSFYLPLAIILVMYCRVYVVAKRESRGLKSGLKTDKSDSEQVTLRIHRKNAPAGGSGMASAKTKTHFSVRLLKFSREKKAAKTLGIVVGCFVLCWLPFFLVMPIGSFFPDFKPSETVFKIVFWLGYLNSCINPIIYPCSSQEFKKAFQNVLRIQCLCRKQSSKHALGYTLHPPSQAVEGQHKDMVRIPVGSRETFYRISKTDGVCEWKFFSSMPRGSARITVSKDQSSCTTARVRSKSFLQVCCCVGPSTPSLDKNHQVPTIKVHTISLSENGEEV

O=C(O)[C@H]1[C@H](Cn2nnc3ccccc3c2=O)CC[C@@H]1C(=O)c1ccc(OCCC2CCOCC2)cc1 [BAY-7598]
residual activity [1]: 90%
inhibition [2]: 2%
inhibition [3]: -2%
inhibition (Mus musculus): 0%
inhibition [4]: 2%
inhibition [5]: 1%
inhibition [6]: 19%
inhibition [7]: -4%
inhibition at 3 h, 10 µM [8]: -9% (not active)
inhibition [9]: 3%
inhibition [10]: -2%
Kd [11]: 4 pM (active)
inhibition [12]: 6%
inhibition [13]: 4%
inhibition at 60 min, 10 µM (hERG (KCNH2)): 7% (not active)
inhibition [14]: 1%
residual activity [15]: 100%
inhibition [16]: -9%
inhibition (Homo sapiens): -1%
inhibition [17]: 17%
inhibition [18]: 2%
inhibition [19]: 7%
inhibition [20]: 0%
inhibition [21]: 7%
inhibition [22]: -7.84%
inhibition [23]: 10%
inhibition [24]: -6%

O=C(O)[C@@H]1[C@@H](Cn2nnc3ccccc3c2=O)CC[C@H]1C(=O)c1ccc(OCCC2CCOCC2)cc1 [BAY-694]
residual activity [1]: 100%
residual activity [15]: 100%
